Conditions: Liquid, Vibrating tube method

CCCCCC [hexane]
Conditions	mass density [kg/m3]
313.12 K, 1019 kPa	642.2
313.12 K, 2044 kPa	643.5
313.12 K, 3023 kPa	644.6
313.12 K, 4018 kPa	645.8
313.12 K, 5016 kPa	647
313.12 K, 6012 kPa	648.1
313.12 K, 7016 kPa	649.2
313.12 K, 8016 kPa	650.3
313.12 K, 9020 kPa	651.4
313.12 K, 10018 kPa	652.5
313.12 K, 11020 kPa	653.5
313.12 K, 12004 kPa	654.6
313.12 K, 13007 kPa	655.6
313.12 K, 14015 kPa	656.6
313.12 K, 15006 kPa	657.6
313.12 K, 16023 kPa	658.6
313.12 K, 17015 kPa	659.6
313.12 K, 18011 kPa	660.5
313.12 K, 19009 kPa	661.4
313.12 K, 20016 kPa	662.4
313.12 K, 20995 kPa	663.3
313.12 K, 22018 kPa	664.2
313.12 K, 23018 kPa	665.1
313.12 K, 24013 kPa	666
313.12 K, 25002 kPa	666.8
323.05 K, 1030 kPa	633
323.05 K, 2010 kPa	634.3
323.05 K, 3021 kPa	635.6
323.05 K, 4018 kPa	636.9
323.05 K, 5014 kPa	638.1
323.05 K, 6007 kPa	639.4
323.05 K, 7010 kPa	640.6
323.05 K, 8012 kPa	641.8
323.05 K, 9020 kPa	643
323.05 K, 10008 kPa	644.1
323.05 K, 11021 kPa	645.2
323.05 K, 12011 kPa	646.4
323.05 K, 13007 kPa	647.4
323.05 K, 14007 kPa	648.5
323.05 K, 15035 kPa	649.6
323.05 K, 16011 kPa	650.6
323.05 K, 17021 kPa	651.6
323.05 K, 18020 kPa	652.7
323.05 K, 19013 kPa	653.7
323.05 K, 20001 kPa	654.6
323.05 K, 21028 kPa	655.6
323.05 K, 22004 kPa	656.6
323.05 K, 23010 kPa	657.5
323.05 K, 24021 kPa	658.5
323.05 K, 25018 kPa	659.4
332.85 K, 1020 kPa	623.5
332.85 K, 2021 kPa	625
332.85 K, 3022 kPa	626.5
332.85 K, 4020 kPa	627.8
332.85 K, 5011 kPa	629.2
332.85 K, 6016 kPa	630.6
332.85 K, 7012 kPa	631.9
332.85 K, 8025 kPa	633.3
332.85 K, 9012 kPa	634.5
332.85 K, 10010 kPa	635.7
332.85 K, 11012 kPa	636.9
332.85 K, 12019 kPa	638.1
332.85 K, 13007 kPa	639.2
332.85 K, 14021 kPa	640.4
332.85 K, 15014 kPa	641.6
332.85 K, 16025 kPa	642.8
332.85 K, 17011 kPa	643.8
332.85 K, 18035 kPa	644.9
332.85 K, 19014 kPa	646
332.85 K, 20011 kPa	647.1
332.85 K, 21015 kPa	648.1
332.85 K, 22000 kPa	649.1
332.85 K, 23012 kPa	650.1
332.85 K, 24022 kPa	651.2
332.85 K, 25030 kPa	652.2
342.73 K, 1010 kPa	613.9
342.73 K, 2010 kPa	615.5
342.73 K, 3011 kPa	617.1
342.73 K, 4010 kPa	618.6
342.73 K, 5005 kPa	620
342.73 K, 6031 kPa	621.6
342.73 K, 7020 kPa	623
342.73 K, 8009 kPa	624.4
342.73 K, 9015 kPa	625.7
342.73 K, 10012 kPa	627
342.73 K, 11006 kPa	628.4
342.73 K, 12014 kPa	629.7
342.73 K, 13011 kPa	630.9
342.73 K, 14014 kPa	632.2
342.73 K, 15008 kPa	633.4
342.73 K, 16006 kPa	634.6
342.73 K, 17021 kPa	635.7
342.73 K, 18016 kPa	636.9
342.73 K, 19025 kPa	638
342.73 K, 20037 kPa	639.2
342.73 K, 21025 kPa	640.3
342.73 K, 22016 kPa	641.3
342.73 K, 23010 kPa	642.5
342.73 K, 24023 kPa	643.5
342.73 K, 25006 kPa	644.5
352.56 K, 1017 kPa	604
352.56 K, 2028 kPa	605.8
352.56 K, 3030 kPa	607.6
352.56 K, 4024 kPa	609.2
352.56 K, 5022 kPa	610.9
352.56 K, 6024 kPa	612.5
352.56 K, 7027 kPa	614
352.56 K, 8021 kPa	615.5
352.56 K, 9022 kPa	617
352.56 K, 10020 kPa	618.4
352.56 K, 11023 kPa	619.9
352.56 K, 12003 kPa	621.2
352.56 K, 13021 kPa	622.6
352.56 K, 14012 kPa	623.9
352.56 K, 15007 kPa	625.2
352.56 K, 16016 kPa	626.5
352.56 K, 17012 kPa	627.7
352.56 K, 18015 kPa	629
352.56 K, 19003 kPa	630.2
352.56 K, 20040 kPa	631.4
352.56 K, 21005 kPa	632.5
352.56 K, 22035 kPa	633.8
352.56 K, 23002 kPa	634.8
352.56 K, 24039 kPa	636
352.56 K, 25000 kPa	637.1
362.4 K, 1029 kPa	593.8
362.4 K, 2020 kPa	595.8
362.4 K, 3028 kPa	597.6
362.4 K, 4029 kPa	599.5
362.4 K, 5040 kPa	601.3
362.4 K, 6026 kPa	602.9
362.4 K, 7026 kPa	604.7
362.4 K, 8004 kPa	606.3
362.4 K, 9007 kPa	607.9
362.4 K, 10009 kPa	609.4
362.4 K, 11009 kPa	610.9
362.4 K, 12010 kPa	612.5
362.4 K, 13000 kPa	614
362.4 K, 14028 kPa	615.5
362.4 K, 15017 kPa	616.8
362.4 K, 16014 kPa	618.1
362.4 K, 17004 kPa	619.5
362.4 K, 18002 kPa	620.9
362.4 K, 18988 kPa	622.1
362.4 K, 20027 kPa	623.4
362.4 K, 21002 kPa	624.7
362.4 K, 22018 kPa	625.9
362.4 K, 23013 kPa	627.1
362.4 K, 24001 kPa	628.4
362.4 K, 25000 kPa	629.5

From the NIST ThermoML archive (doi:10.1021/je7003929)
